What was measured:
[1] = system: HS‐5 cells; experiment: MTT assay, HS‐5 cells; assay type: cell-based; details: 72 h exposure, nonmalignant bone marrow stromal cells
Method: Carboplatin, a second‐generation platinum drug commonly used as part of standard first‐line chemotherapy for ovarian carcinoma, was examined as a reference compound due to its clinical relevance. Additionally, the nonmalignant bone marrow stromal cell line HS‐5 was included as a control to assess specificity of the complexes toward cancer cells.
The exponentially growing cells were seeded at a density of 8 × 10^3 cells/well (A2780wt/cis) or 1 × 10^4 cells/well (HS‐5), respectively, into clear flat‐bottom 96‐well plates in triplicates. Following 24 h of incubation for the adherence of the cells at 37°C in a humidified atmosphere (5% CO2/95% air), the test compounds were added. […] For the evaluation of the cell growth inhibition by the compounds loaded in BGs, the BG suspensions were directly diluted in RPMI 1640 to the desired testing concentration (25 µM). After another 72 h of incubation, the cellular metabolic activity was measured as an indicator of cell viability employing an MTT assay. Hereby, 20 µL of a 5 mg/mL MTT solution was added to each well, respectively. After 3 h of incubation, the medium was discarded, and the formazan crystals formed were dissolved in DMSO for 15 min with gentle shaking. Afterward, the optical density (OD) was measured at 595 and 620 nm, respectively on an EnSpire Multimode Plate Reader (revvity, Waltham, MA, USA). The OD at 620 nm was subtracted from the OD at 595 nm. The OD of the medium was subtracted to exclude the unspecific staining caused by FCS‐containing medium. Cells treated with vehicle control (0.1% DMF) only were set at 100% metabolic activity. The IC50 values were calculated with Prism 8.0 (GraphPad Software Inc., Boston, MA, USA) using nonlinear regression. Significance was evaluated via a one sample t‐test performed with Prism 8.0.

[2] = Water solubility; assay type: physicochemical
[3] = system: A2780wt cells; experiment: Annexin V/PI staining and FACS analysis, A2780wt; assay type: cell-based; details: w/o BGs, 25 µM, 24 h; for late apoptosis/ necrosis: Annexin V positive/PI positive; for early apoptosis: percentage of cells (Annexin V positive/PI negative)
Method: (§1) Therefore, we aimed to evaluate the apoptosis and necrosis inducing potential of complexes 1–4 via a fluorescent‐activated cell sorting (FACS) analysis with Annexin V/propidium iodide (PI) staining in A2780wt and A2780cis cells. Cells were treated for 24 h with both the free and BG‐loaded forms of each compound at 25 µM. Carboplatin (50 µM) served as a reference.
(§2) To evaluate the mode of cell death, a FACS measurement after staining with Annexin V and PI was conducted. First, 0.3 × 10^6 A2780wt or A2780cis cells were seeded into 12‐well plates and were allowed to adhere for 24 h. The compounds were added at 25 µM, either diluted from a freshly prepared DMF stock solution (0.1% DMF) or freshly thawed when loaded in BGs. After 24 h of incubation, the cells were harvested with accutase and washed with PBS. The cells were then resuspended in 200 µL of PBS each and 1 µL of PI solution (Sigma‐Aldrich, Taufkirchen, Germany) and 1 µL of Annexin V‐FITC (MabTag GmbH, Friesoythe, Germany) were added to each sample. These were then incubated for 20 min at rt under light‐protected conditions and afterward transferred onto ice. The percentage of apoptotic cells was determined by analyzing Annexin V positive /PI negative cells using a BD LSRFortessa flow cytometer and BD FACSDiva software (both BD Biosciences, San Jose, CA, USA). The apoptosis analysis included the evaluation of early apoptosis (Annexin V positive/PI negative) and late apoptosis/necrosis (Annexin V positive /PI positive).

[4] = system: A2780cis cells; experiment: Annexin V/PI staining and FACS analysis, A2780cis; assay type: cell-based; details: w/o BGs, 25 µM, 24 h; for late apoptosis/ necrosis: Annexin V positive/PI positive; for early apoptosis: percentage of cells (Annexin V positive/PI negative)
Method: as §1, §2

[5] = system: A2780wt cells; experiment: ATP luminescence assay, A2780wt; assay type: cell-based; details: w/o BGs, 25 µM, 24 h
From the text: (§3) As a second potential mode of cell death, ICD has been investigated. Thus, two hallmarks of ICD, namely release of adenosine triphosphate (ATP) and calreticulin translocation to the plasma membrane have been analyzed in detail. Given that some platinum complexes, including the clinically used drug oxaliplatin [27], as well as BGs, are known inducers of ICD, we investigated the potential of BGs loaded with platinum(II)‐NHC complexes to trigger this process. […] Untreated cells (without compound and without BGs) were tested as negative controls.
(§4) The ATP assay was performed by employing the commercially available ATPlite Luminescence Assay System 96‐well (revvity, Massachusetts, USA). In brief, A2780wt and A2780cis cells, respectively, were seeded at a density of 8 × 10^3 cells per well into an opaque‐walled 96‐well plate with solid bottoms. […] After incubation, 50 µL of the provided mammalian cell lysis solution was added and incubated for further 5 min on an orbital shaker at 700 rpm. Then, 50 µL of a provided substrate solution was added and again incubated for 5 min on an orbital shaker at 700 rpm. The plate was allowed to dark adapt for 10 min and then the luminescence was measured. Analysis was performed on the BioTek Synergy H1.

[6] = system: A2780cis cells; experiment: ATP luminescence assay, A2780cis; assay type: cell-based; details: w/o BGs, 25 µM, 24 h
From the text: as §3, §4

Compound | IC50 [1] [µM] | water solubility [2] | late apoptosis/ necrosis [3] | early apoptosis [3] | late apoptosis/ necrosis [4] | early apoptosis [4] | ATP concentration [5] [µM] | ATP concentration [6] [µM]
CCN1[C]([Pt]([O]C(C)=O)([O]C(C)=O)[SH](C)(C)=O)N(CC)c2ccccc21 [Compound 1, (SP‐4‐2)‐Diacetato(1,3‐diethylbenzimidazol‐2‐ylidene)(dimethylsulfoxide)platinum(II)] | 64.3 ± 8.2 | approximately 10 mg/mL | 29.1 ± 2.56 | 15.9 ± 1.55 | 15.0 ± 1.65 | 21.3 ± 1.18 | 0.20 ± 0.04 | 0.23 ± 0.05
CCN1[C]([Pt]([O]C(=O)C(Cl)Cl)([O]C(=O)C(Cl)Cl)[SH](C)(C)=O)N(CC)c2ccccc21 [Compound 3, (SP‐4‐2)‐Bis(dichloroacetato)(1,3‐diethylbenzimidazol‐2‐ylidene)(dimethylsulfoxide)platinum(II)] | > 100 | < 500 µg/mL | 28.8 ± 2.50 | 15.3 ± 1.17 | 10.6 ± 0.95 | 11.4 ± 1.82 | 0.15 ± 0.08 | 0.28 ± 0.04
(SP‐4‐2)‐Bis(dichloroacetato)bis(1,3‐diethylbenzimidazol‐2‐ylidene)platinum(II) [Compound 4] | 37 ± 1.36 | < 500 µg/mL | 46.9 ± 3.01 | 13.2 ± 0.22 | 18.1 ± 1.46 | 22.9 ± 1.67 | 0.32 ± 0.13 | 0.10 ± 0.03
(SP‐4‐2)‐Diacetatobis(1,3‐diethylbenzimidazol‐2‐ylidene)platinum(II) [Compound 2] | > 50 | around 3 mg/mL | 25.9 ± 5.70 | 9.37 ± 0.31 | 10.0 ± 1.77 | 6.37 ± 1.17 | 0.32 ± 0.03 | 0.31 ± 0.04

— publication PMC12476087, “Loading of Dicarboxylatoplatinum(II)‐NHC Complexes in Bacterial Ghosts as an Advanced Development in Cancer Therapy” (Archiv Der Pharmazie, 2025)
